In ChEMBL document CHEMBL5725589, “Heterocyclic compounds as PI3K-γ inhibitors” (2018) one finds IC50 data, which are given here for 34 compounds.

SMILES strings stand for the structures.

For experiment [1], the target named is Tyrosine-protein kinase JAK1 (Homo sapiens, UniProt P23458). The experiment is described as follows: In Vitro JAK Kinase Assay: Compounds herein were tested for inhibitory activity of JAK targets according to the following in vitro assay described in Park et al., Analytical Biochemistry 1999, 269, 94-104. The catalytic domains of human JAK1 (a.a. 837-1142), JAK2 (a.a. 828-1132) and JAK3 (a.a. 781-1124) were expressed using baculovirus in insect cells and purified. The catalytic activity of JAK1 ….
Tyrosine-protein kinase JAK1, sequence (P23458 whole entry, the tested form may be a part): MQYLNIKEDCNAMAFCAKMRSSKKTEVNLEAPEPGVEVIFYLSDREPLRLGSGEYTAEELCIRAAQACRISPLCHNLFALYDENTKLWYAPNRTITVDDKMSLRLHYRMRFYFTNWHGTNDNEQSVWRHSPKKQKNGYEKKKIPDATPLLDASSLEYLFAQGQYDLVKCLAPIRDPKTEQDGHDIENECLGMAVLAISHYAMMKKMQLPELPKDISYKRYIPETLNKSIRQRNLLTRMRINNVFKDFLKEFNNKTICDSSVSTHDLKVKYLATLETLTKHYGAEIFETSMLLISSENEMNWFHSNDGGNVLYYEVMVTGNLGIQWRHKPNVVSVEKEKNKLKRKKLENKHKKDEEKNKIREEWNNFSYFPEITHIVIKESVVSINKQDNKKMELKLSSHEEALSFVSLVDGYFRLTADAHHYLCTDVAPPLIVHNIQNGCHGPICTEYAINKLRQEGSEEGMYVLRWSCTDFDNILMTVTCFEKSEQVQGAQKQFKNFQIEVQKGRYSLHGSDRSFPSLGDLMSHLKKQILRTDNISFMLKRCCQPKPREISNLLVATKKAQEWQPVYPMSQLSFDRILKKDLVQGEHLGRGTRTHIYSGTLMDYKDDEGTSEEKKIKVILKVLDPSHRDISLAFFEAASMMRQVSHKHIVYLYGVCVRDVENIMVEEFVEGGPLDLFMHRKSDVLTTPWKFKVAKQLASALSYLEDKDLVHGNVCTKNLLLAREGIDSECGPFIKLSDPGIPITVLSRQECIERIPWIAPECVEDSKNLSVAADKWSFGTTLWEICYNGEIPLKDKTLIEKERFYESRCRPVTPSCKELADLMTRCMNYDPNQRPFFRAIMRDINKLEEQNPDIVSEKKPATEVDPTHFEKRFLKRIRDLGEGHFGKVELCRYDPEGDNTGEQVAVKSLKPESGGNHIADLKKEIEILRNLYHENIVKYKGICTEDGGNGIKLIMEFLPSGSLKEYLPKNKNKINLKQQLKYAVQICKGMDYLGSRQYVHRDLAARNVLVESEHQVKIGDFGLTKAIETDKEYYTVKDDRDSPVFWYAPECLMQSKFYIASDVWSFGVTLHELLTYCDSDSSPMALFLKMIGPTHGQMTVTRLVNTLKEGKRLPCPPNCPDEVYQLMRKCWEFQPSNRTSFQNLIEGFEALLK

Experiment [2] has as its target Phosphatidylinositol 4,5-bisphosphate 3-kinase catalytic subunit gamma isoform (Homo sapiens, UniProt P48736). Kind of experiment: PI3Kγ (p110γ) Recombinant Human Protein was purchased from Life technology (Grand Island, N.Y.). […] The final concentration of DMSO in the assay was 2%. […] ATP, 13 nM PI3Kγ. […] The final concentration of SPA beads is 1.0 mg/mL.
Experiment [3] addresses T1, Phosphatidylinositol 4,5-bisphosphate 3-kinase catalytic subunit delta isoform (Homo sapiens, UniProt O00329).
T1 sequence (O00329 whole entry): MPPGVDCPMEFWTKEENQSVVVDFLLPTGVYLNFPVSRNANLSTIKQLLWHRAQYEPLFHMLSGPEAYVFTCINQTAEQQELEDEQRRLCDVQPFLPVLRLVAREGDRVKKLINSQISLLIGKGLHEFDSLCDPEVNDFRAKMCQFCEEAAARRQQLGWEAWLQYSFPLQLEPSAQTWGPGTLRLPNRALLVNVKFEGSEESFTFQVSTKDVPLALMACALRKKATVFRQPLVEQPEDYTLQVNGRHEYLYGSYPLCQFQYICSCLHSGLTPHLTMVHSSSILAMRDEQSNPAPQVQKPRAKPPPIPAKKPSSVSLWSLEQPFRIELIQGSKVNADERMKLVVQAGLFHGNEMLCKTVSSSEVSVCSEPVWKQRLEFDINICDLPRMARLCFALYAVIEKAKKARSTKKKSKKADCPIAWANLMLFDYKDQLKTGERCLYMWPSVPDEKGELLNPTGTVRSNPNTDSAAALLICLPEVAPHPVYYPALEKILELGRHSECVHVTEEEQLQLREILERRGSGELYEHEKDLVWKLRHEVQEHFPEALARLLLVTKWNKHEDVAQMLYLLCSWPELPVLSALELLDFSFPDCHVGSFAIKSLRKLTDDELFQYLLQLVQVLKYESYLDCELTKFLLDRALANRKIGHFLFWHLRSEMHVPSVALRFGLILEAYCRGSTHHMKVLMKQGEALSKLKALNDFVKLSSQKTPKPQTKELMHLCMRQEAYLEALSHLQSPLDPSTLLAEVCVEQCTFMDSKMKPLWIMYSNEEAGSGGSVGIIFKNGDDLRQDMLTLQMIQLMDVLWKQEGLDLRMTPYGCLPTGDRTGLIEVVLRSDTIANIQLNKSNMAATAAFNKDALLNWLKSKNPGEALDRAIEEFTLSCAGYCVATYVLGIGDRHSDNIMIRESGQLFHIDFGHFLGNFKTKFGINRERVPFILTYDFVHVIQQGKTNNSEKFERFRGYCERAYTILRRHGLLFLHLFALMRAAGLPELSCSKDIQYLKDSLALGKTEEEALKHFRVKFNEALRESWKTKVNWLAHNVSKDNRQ
The experiment is described as follows: PI3Kδ (p110δ/p85α) Recombinant Human Protein was purchased from Eurofins (St Charles, Mo.). […] The final concentration of DMSO in the assay was 2%. […] ATP, 3.4 nM PI3Kδ. […] The final concentration of SPA beads is 1.0 mg/mL.

Phosphatidylinositol 4,5-bisphosphate 3-kinase catalytic subunit gamma isoform, sequence (P48736 whole entry, canonical isoform): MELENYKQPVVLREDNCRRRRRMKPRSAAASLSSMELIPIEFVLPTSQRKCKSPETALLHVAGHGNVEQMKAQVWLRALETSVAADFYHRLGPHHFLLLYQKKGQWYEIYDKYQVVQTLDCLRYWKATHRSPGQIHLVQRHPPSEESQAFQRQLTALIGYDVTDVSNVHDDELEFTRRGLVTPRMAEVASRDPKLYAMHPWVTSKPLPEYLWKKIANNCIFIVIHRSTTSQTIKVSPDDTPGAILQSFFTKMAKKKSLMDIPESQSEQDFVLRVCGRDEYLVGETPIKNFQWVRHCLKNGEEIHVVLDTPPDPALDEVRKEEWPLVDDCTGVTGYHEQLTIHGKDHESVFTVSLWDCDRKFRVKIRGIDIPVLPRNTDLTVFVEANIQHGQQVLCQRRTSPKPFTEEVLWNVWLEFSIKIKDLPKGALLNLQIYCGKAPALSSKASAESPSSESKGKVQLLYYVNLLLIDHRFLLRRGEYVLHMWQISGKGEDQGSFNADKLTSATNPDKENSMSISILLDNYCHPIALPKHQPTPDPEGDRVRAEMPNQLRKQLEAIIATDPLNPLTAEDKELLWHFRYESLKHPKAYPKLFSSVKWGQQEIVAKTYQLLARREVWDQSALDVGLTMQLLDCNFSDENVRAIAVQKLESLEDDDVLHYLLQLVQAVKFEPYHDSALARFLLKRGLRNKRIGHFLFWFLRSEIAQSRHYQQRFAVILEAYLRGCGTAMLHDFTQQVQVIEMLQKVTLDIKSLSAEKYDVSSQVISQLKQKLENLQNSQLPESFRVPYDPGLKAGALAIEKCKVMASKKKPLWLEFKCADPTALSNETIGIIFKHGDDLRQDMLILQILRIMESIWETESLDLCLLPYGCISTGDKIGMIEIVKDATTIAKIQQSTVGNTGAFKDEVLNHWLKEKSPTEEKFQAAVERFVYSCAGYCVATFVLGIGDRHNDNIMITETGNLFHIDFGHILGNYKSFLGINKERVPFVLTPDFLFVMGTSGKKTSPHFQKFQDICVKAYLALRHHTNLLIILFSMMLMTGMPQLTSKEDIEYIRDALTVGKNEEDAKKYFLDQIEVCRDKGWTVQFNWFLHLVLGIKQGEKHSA

In experiment [1], `N#CCC1(n2cc(-c3ncnc4[nH]ccc34)cn2)CN(C2CCN(C(=O)Nc3ccc(F)cc3C(F)(F)F)CC2)C1` gave an IC50 of less than 0.1 µM.

In experiment [1], `N#CCC1(n2cc(-c3ncnc4[nH]ccc34)cn2)CN(C2CCN(C(=O)c3ccnc(C(F)(F)F)n3)CC2)C1` displayed an IC50 of less than 0.1 µM.

As to `N#CC[C@]1(n2cc(-c3ncnc4[nH]ccc34)cn2)C[C@H](N2CCC(Oc3cc(CN4CC(O)C4)cc(C(F)(F)F)n3)CC2)C1`, in experiment [1], the IC50 was less than 0.1 µM.

Turning to `N#CCC(C1CCN(c2nc3cccnc3o2)C1)n1cc(-c2ncnc3[nH]ccc23)cn1` (centres undefined), in experiment [1], the IC50 is less than 0.1 µM.

Turning to `N#CC[C@]1(n2cc(-c3ncnc4[nH]ccc34)cn2)C[C@H](N2CCN(C(=O)c3ccnc(C(F)(F)F)n3)CC2)C1`, the IC50 in experiment [1] was less than 0.1 µM.

As to `CCNCc1cc(O[C@H]2CC[C@@H](N3CC(CC#N)(n4cc(-c5ncnc6[nH]ccc56)cn4)C3)CC2)nc(C(F)(F)F)c1`, in experiment [1], the IC50 is less than 0.1 µM.

As for `CC(NC(=O)c1c(N)nn2cccnc12)c1cc(Cl)c2cn(CC(=O)N3CCOCC3)nc2c1-c1ccccc1` (centres undefined), the IC50 in experiment [2] and in experiment [3] was less than 0.5 µM each time.

With `N#CC[C@]1(n2cc(-c3ncnc4[nH]ccc34)cn2)C[C@H](N2CCC(Oc3cc(CN4CCC[C@@H]4CO)cc(C(F)(F)F)n3)CC2)C1`, the IC50 in experiment [1] is less than 0.1 µM.

`N#CCC(CN1CCN(C(=O)c2ccc(C#N)cc2F)CC1)n1ccc(-c2ncnc3[nH]ccc23)c1` (centres undefined) returned an IC50 in experiment [1] of less than 0.1 µM.

As for `CC(NC(=O)c1c(N)nn2cccnc12)c1cc(Cl)c2cnn(CCN3CCOCC3)c2c1-c1ccccc1` (centres undefined), the IC50 in experiment [2] and in experiment [3] was less than 0.1 µM throughout.

For the compound `CCOc1c(C(C)NC(=O)c2c(N)nn3cccnc23)cc(Cl)c2cn(C)nc12` (centres undefined), the 50% inhibitory concentration (IC50) in experiment [2] and in experiment [3] was less than 0.5 µM each time.

`Cc1cc(C(C)NC(=O)c2c(N)nn3cccnc23)c(-c2ccccc2)c2[nH]nc(C)c12` (centres undefined): the IC50 in experiment [2] was less than 0.5 µM; in experiment [3] it was less than 2 µM.

Turning to `N#CCC1(n2cc(-c3ncnc4[nH]ccc34)cn2)CN([C@H]2CC[C@@H](Oc3cc(CCO)nc(C(F)(F)F)n3)CC2)C1`, in experiment [1], the 50% inhibitory concentration (IC50) is less than 0.1 µM.

In experiment [1], `N#CC[C@]1(n2cc(-c3ncnc4[nH]ccc34)cn2)C[C@H](N2CCC(Oc3cc(CCO)cc(C(F)(F)F)n3)CC2)C1` gave an IC50 of less than 0.1 µM.

In experiment [1], `CC(C)(O)c1cc(O[C@H]2CC[C@@H](N3CC(CC#N)(n4cc(-c5ncnc6[nH]ccc56)cn4)C3)CC2)nc(C(F)(F)F)c1` gave an IC50 of less than 0.1 µM.

As for `CC(NC(=O)c1c(N)nn2cccnc12)c1cc(Cl)c2c(Br)n[nH]c2c1-c1ccccc1` (centres undefined), the IC50 in experiment [2] is less than 0.1 µM; in experiment [3] it was less than 2 µM.

Consider `CC(NC(=O)c1c(N)nn2cccnc12)c1cc(C#N)c2cncn2c1-c1ccccc1` (centres undefined), for which the 50% inhibitory concentration (IC50) in experiment [2] and in experiment [3] was less than 0.5 µM throughout.

On to `CC(NC(=O)c1c(N)nn2cccnc12)c1cc(Cl)c2cn(Cc3ccn(C)n3)nc2c1-c1ccccc1` (centres undefined), for which the figures for the IC50 in experiment [2] and in experiment [3] were less than 0.5 µM and less than 2 µM, respectively.

On to `Cc1ncc2c(Cl)cc(C(C)NC(=O)c3c(N)nn4cccnc34)c(-c3cccc(F)c3)n12` (centres undefined), for which the IC50 in experiment [2] and in experiment [3] was less than 0.1 µM throughout.

`C[C@@H](CO)NCc1cc(OC2CCN([C@H]3C[C@](CC#N)(n4cc(-c5ncnc6[nH]ccc56)cn4)C3)CC2)nc(C(F)(F)F)c1` yielded an IC50 in experiment [1] of less than 0.1 µM.

On to `CC(NC(=O)c1c(N)nn2cccnc12)c1cc(Cl)c2cn[nH]c2c1-c1ccccc1` (centres undefined), for which the IC50 in experiment [2] is less than 0.1 µM; in experiment [3], less than 0.5 µM.

`C[C@@H](O)c1nc2cnc3ccsc3c2n1[C@H]1CC[C@H](CC#N)OC1`: the IC50 in experiment [1] was less than 0.5 µM.

Regarding `Cc1n[nH]c2c(-c3ccccc3)c(C(C)NC(=O)c3c(N)nn4cccnc34)cc(Cl)c12` (centres undefined), the results for the IC50 in experiment [2] and in experiment [3] were less than 0.1 µM and less than 0.5 µM, respectively.

`Cc1cc(C(C)NC(=O)c2c(N)nn3cccnc23)c(-c2cccc(F)c2)n2c(C)ncc12` (centres undefined): the IC50 is less than 0.1 µM in experiment [2] and less than 2 µM in experiment [3].

`CCCC(NC(=O)c1c(N)nn2cccnc12)c1cc(Cl)c2cncn2c1N1CCS(=O)(=O)CC1` (centres undefined): the IC50 in experiment [2] and in experiment [3] was less than 0.1 µM each time.

In the case of `CC(NC(=O)c1c(N)nn2cccnc12)c1cc(Cl)c2cncn2c1-c1ccccc1` (centres undefined), the IC50 in experiment [2] and in experiment [3] was less than 0.1 µM throughout.

For the compound `C[C@@H](O)CNCc1cc(OC2CCN([C@H]3C[C@](CC#N)(n4cc(-c5ncnc6[nH]ccc56)cn4)C3)CC2)nc(C(F)(F)F)c1`, the IC50 in experiment [1] is less than 0.1 µM.

In turn, `C[C@H](NC(=O)c1cc(F)c(N2CC(CC#N)(n3cc(-c4ncnc5[nH]ccc45)cn3)C2)cc1F)C(F)(F)F` displayed an IC50 in experiment [1] of less than 0.1 µM.

On to `CCOc1c(C(C)NC(=O)c2c(N)nn3cccnc23)cc(Cl)c2cnn(C)c12` (centres undefined), for which the IC50 in experiment [2] and in experiment [3] was less than 0.1 µM throughout.

In turn, `N#CC[C@]1(n2cc(-c3ncnc4[nH]ccc34)cn2)C[C@H](N2CCC(Oc3cc(CN4CCC[C@H]4CO)cc(C(F)(F)F)n3)CC2)C1` showed an IC50 in experiment [1] of less than 0.1 µM.

On to `N#CCC1(n2cc(-c3ncnc4[nH]ccc34)cn2)CN([C@H]2CC[C@@H](Oc3cc(CN4CC[C@@H](O)C4)cc(C(F)(F)F)n3)CC2)C1`, for which the IC50 in experiment [1] is less than 0.1 µM.

In the case of `CCOc1c(C(C)NC(=O)c2c(N)nn3cccnc23)cc(Cl)c2cn(CC)nc12` (centres undefined), the IC50 is less than 0.5 µM in experiment [2] and less than 2 µM in experiment [3].

Compound `N#CCC1(n2cc(-c3ncnc4[nH]ccc34)cn2)CN([C@H]2CC[C@@H](Oc3cc(CN4CC[C@H](O)C4)cc(C(F)(F)F)n3)CC2)C1` (single isomer, unassigned) showed an IC50 in experiment [1] of less than 0.1 µM.

With `N#CCC1(n2cc(-c3ncnc4[nH]ccc34)cn2)CN(C2CCN(C(=O)c3ccnc(C(F)(F)F)c3F)CC2)C1` [ITACITINIB], the IC50 in experiment [1] was less than 0.1 µM.
